Literature values, collected in patent publication US5648396A, “Methods for treating depression and other disorders using optically pure R (-) fluoxetine and monoamine oxidase inhibitor” (Sepracor Inc., priority 1995, dated 1997).
“Also recorded” adds a separate entry of the source.

What was measured:
[1] = L-form versus D-enantiomer
5HIAA = details: acute effect; Wong et al. 1985
patients [2] = details: in vivo
[3] = racemic mixture
histaminergic receptors = details: than tricyclic antidepressants; brain tissue
[4] = tested on: dopamine turnover in striatum; details: in vivo
patients [5] = tested on: patients
α1 adrenergic receptors = details: than tricyclic antidepressants; brain tissue
[6] = tested on: morning sickness during pregnancy; details: control of morning sickness during pregnancy; suggested
uptake of norepinephrine = details: relative to effect on 5HT uptake
PCPA effect on 5HT = details: for Duration of Inhibition of PCPA 5HT effect / Inhibition of PCPA effect on 5HT (full block): Fuller & Snoddy 1986; for Inhibition of PCPA effect on 5HT (ED50): Robertson et al 1988
α2 receptor = details: relative to effect on 5HT uptake
acetic acid writhing = details: Robertson et al 1988
D1 receptor = details: relative to effect on 5HT uptake
Saccharine palatability = details: Robertson et al 1988
[7] = tested on: writhing (morphine potentiation); details: Robertson et al 1988
α1A receptor = details: relative to effect on 5HT uptake
5HT1 receptor = details: relative to effect on 5HT uptake
5HT1A receptor = details: relative to effect on 5HT uptake
D2 receptor = details: relative to effect on 5HT uptake
β receptor = details: relative to effect on 5HT uptake
HT2 receptor = details: relative to effect on 5HT uptake
Feeding = details: rel. potency R vs S, Wong et al 1988
[8] = suggested

Row | Compound | affinity for the uptake of norepinephrine (uptake of norepinephrine) | Duration of Inhibition of PCPA 5HT effect (PCPA effect on 5HT) | Inhibition of PCPA effect on 5HT (ED50) (PCPA effect on 5HT) [mg/kg] | Inhibition of PCPA effect on 5HT (full block) (PCPA effect on 5HT) | affinity for α2 receptor (α2 receptor) | Inhibition of acetic acid writhing (ED50) (acetic acid writhing) [mg/kg] | affinity for D1 receptor (D1 receptor) | Inhibition of Saccharine palatability (ED50) (Saccharine palatability) [mg/kg] | Inhibition of writhing (morphine potentiation; ED50) [7] [mg/kg] | affinity for α1A receptor (α1A receptor) | affinity for 5HT1 receptor (5HT1 receptor) | affinity for 5HT1A receptor (5HT1A receptor) | affinity for D2 receptor (D2 receptor) | affinity for β receptor (β receptor) | affinity for HT2 receptor (HT2 receptor) | other results
1 | CC(C)NC[C@H](O)COc1cccc2ccccc12 [L-form of propranolol] |  |  |  |  |  |  |  |  |  |  |  |  |  |  |  | potency relative to the D-enantiomer [1]: 100 times
2 | CNCCC(Oc1ccc(C(F)(F)F)cc1)c1ccccc1 (racemic) [R,S-Fluoxetine] |  |  |  |  |  |  |  |  |  |  |  |  |  |  |  | levels of the intracellular serotonin metabolite 5HIAA (5HIAA): rapid reduction; wait after discontinuing fluoxetine before starting treatment with an MAOI (patients [2]): 5-6 weeks; half-life and duration of action (in words) [3]: long half-life and long duration of action; binding to histaminergic receptors (histaminergic receptors): much less potently; dopamine turnover in striatum [4]: affects dopamine turnover in striatum; drug discontinuation due to headaches, nervousness, anxiety and insomnia (patients [5]; of patients treated with the drug): 5%; adverse effects (in words) (patients [5]; patients): produces a state of inner restlessness (akathisia); also recorded: severe anxiety leading to intense violent suicidal thoughts and self mutilation; also recorded: manic behavior; also recorded: nausea, diarrhea, drowsiness, decrease in libido, and/or sexual dysfunction; anticholinergic and cardiovascular side effects (patients [5]; versus tricyclic antidepressants): less anticholinergic side effects such as blurred vision, dry mouth, constipation and urinary retention; also recorded: less lowering of blood pressure, tachycardia and arrhythmias; binding to α1 adrenergic receptors (α1 adrenergic receptors): much less potently
3 | O=C1CC[C@@H](N2C(=O)c3ccccc3C2=O)C(=O)N1 [D-enantiomer of thalidomide] |  |  |  |  |  |  |  |  |  |  |  |  |  |  |  | sedative effect [6]: safe and effective sedative
4 | CNCC[C@H](Oc1ccc(C(F)(F)F)cc1)c1ccccc1 [S-Fluoxetine] | relatively little affinity | > 24 h | 1.2 | ~ 5 mg/kg | relatively little affinity | 25.7 | relatively little affinity | 4.9 | 5.7 | relatively little affinity | relatively little affinity | relatively little affinity | relatively little affinity | relatively little affinity | relatively little affinity | 
5 | CNCC[C@@H](Oc1ccc(C(F)(F)F)cc1)c1ccccc1 [R-Fluoxetine, (-)N-methyl-3-phenyl-3-[(α,α,α-trifluoro-p-tolyl)-oxy]-propylamine] | relatively little affinity | ~ 8 hr | 2.1 | ~ 10 mg/kg | relatively little affinity | 15.3 | relatively little affinity | 6.1 | 3.6 | relatively little affinity | relatively little affinity | relatively little affinity | relatively little affinity | relatively little affinity | relatively little affinity | Inhibition of Feeding (meal fed, 2DG) (rel. potency) (Feeding): R < S
6 | O=C1CC[C@H](N2C(=O)c3ccccc3C2=O)C(=O)N1 [L-enantiomer of thalidomide] |  |  |  |  |  |  |  |  |  |  |  |  |  |  |  | teratogenicity [8]: potent teratogen
